Legend:
JAK1 = biological target: T1, JAK1 (Homo sapiens, UniProt P23458); assay: Z'-LYTE kinase assay, JAK1 tyrosine phosphorylation activity; format: biochemical; details: read-out: JAK 1 IC50
T1 construct: 5 μl of catalytic domain recombinant Kinase enzyme+Tyr peptide substrate (Invitrogen, Calif.); purchased Invitrogen
How it was run: (§1)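 Z'-LYTE format using the Tyr6 peptide with recombinant catalytic-domain kinase; 1 h kinase reaction and 1 h development, both at room temperature. IC50s derived from ratiometric FRET signal.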

[1] = system: IL4-induced phospho STAT6 formation in Ramos B lymphocytes; assay: Inhibition of IL4-induced phospho STAT6 formation in Ramos B lymphocytes (flow cytometry); format: cell-based, human; details: for inhibition at 0.2 µM / inhibition at 1 µM: Homo sapiens; for inhibition at 0.2 µM: read-out: % Inhibition of IL-4 Induced STAT6 Phosphorylation 200 nM; for inhibition at 1 µM: read-out: % Inhibition of IL-4 Induced STAT6 Phosphorylation 1 μM
Description: Similar types of assays can be used to assess JAK inhibitory activity and to determine the degree of selectivity of the particular compound as compared to syk. One means of assaying for such inhibition is detection of the effect of the compounds of the present invention on the upregulation of downstream gene products. In the Ramos/IL4 assay, B-cells are stimulated with the cytokine Interleukin-4 (IL-4) leading to the activation of the JAK/Stat pathway through phosphorylation of the JAK family kinases, JAK1 and JAK3, which in turn phosphorylate and activate the transcription factor Stat-6. […] To study the effect of inhibitors (e.g., the 2,4-substituted pyrimindinediamine compounds described herein) on the JAK1 and JAK3, human Ramos B-cells are stimulated with human IL-4. 10′ post-stimulation, cells are subjected to intracellular flow cytometry to measure the extent of STAT-6 phosphorylation. 20 to 24 hours post-stimulation, cells are stained for upregulation of CD23 and analyzed using flow cytometry.
Inhibition of IL4-induced phospho STAT6 formation was measured by pre-incubating 0.5 million Ramos B lymphocytes (ATCC) with 5 μl compound or DMSO vehicle for 1 hour at 37° C./5% CO2. Cells were activated by addition of 1 ng/ml [f]IL4 (R & D Research Systems) for 10 min at 37° C./5% CO2 and then fixed by addition of 1.6% [f]PFA (Electron Microscopy Services). Following a PBS wash step and permaeabilization with 100% methanol, cells were incubated with ALEXA-conjugated anti-phosphoSTAT6 (Y641) antibody (BD 612600). The extent of cell associated-fluorescence was determined by flow cytomentry and data expressed as mean fluorescent intensity. The extent of inhibition of the IL4-induced signal was then calculated.

JAK3 = biological target: T2, JAK3 (Homo sapiens, UniProt P52333); assay: Z'-LYTE kinase assay, JAK3 tyrosine phosphorylation activity; format: biochemical
T2 construct: 5 μl of catalytic domain recombinant Kinase enzyme+Tyr peptide substrate (Invitrogen, Calif.); purchased Invitrogen
How it was run: as §1

TYK2 = biological target: T3, TYK2 (Homo sapiens, UniProt P29597); assay: Z'-LYTE kinase assay, TYK2 tyrosine phosphorylation activity; format: biochemical
T3 construct: 5 μl of catalytic domain recombinant Kinase enzyme+Tyr peptide substrate (Invitrogen, Calif.); purchased Invitrogen
T3 sequence (P29597 897-1176 limits assumed): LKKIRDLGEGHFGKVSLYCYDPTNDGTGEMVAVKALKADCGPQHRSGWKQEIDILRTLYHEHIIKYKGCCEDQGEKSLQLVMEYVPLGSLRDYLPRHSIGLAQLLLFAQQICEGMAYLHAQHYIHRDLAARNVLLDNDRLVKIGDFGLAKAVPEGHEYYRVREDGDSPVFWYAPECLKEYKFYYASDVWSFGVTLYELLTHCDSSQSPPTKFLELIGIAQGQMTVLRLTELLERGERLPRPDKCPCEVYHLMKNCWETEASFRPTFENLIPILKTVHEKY
How it was run: as §1

JAK2 = biological target: T4, JAK2 (Homo sapiens, UniProt O60674); assay: Z'-LYTE kinase assay, JAK2 tyrosine phosphorylation activity; format: biochemical
T4 construct: 5 μl of catalytic domain recombinant Kinase enzyme+Tyr peptide substrate (Invitrogen, Calif.); purchased Invitrogen
How it was run: as §1

T2 sequence (P52333 822-1111 limits assumed): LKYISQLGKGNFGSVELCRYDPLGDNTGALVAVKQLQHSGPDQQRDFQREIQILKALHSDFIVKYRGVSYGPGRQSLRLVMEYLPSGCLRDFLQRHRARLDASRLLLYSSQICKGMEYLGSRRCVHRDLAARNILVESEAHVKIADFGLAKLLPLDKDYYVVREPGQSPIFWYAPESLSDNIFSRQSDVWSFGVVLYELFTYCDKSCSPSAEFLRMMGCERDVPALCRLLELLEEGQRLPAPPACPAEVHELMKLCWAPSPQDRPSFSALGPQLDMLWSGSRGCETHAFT
T4 sequence (O60674 849-1124 limits assumed): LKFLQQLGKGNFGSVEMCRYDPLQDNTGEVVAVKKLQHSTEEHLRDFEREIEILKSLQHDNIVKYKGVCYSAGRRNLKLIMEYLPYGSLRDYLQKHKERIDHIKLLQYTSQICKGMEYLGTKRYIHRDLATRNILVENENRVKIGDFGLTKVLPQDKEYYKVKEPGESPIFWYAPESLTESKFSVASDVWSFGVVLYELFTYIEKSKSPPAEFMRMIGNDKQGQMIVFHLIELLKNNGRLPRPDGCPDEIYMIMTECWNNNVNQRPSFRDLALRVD
T1 sequence (P23458 875-1153 limits assumed): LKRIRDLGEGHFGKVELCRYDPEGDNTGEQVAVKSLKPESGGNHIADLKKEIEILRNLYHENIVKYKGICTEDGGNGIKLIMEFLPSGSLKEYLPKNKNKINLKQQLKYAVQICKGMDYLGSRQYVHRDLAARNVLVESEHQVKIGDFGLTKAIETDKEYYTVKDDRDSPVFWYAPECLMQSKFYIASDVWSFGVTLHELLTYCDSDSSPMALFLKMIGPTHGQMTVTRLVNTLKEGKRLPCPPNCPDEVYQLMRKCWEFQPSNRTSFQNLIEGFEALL

Molecule	IC50 (JAK1)	IC50 (JAK3)	IC50 (TYK2)	IC50 (JAK2)	% Inhibition of IL-4 Induced STAT6 Phosphorylation 200 nM ([1]; 200 nM compound)	% Inhibition of IL-4 Induced STAT6 Phosphorylation 1 μM ([1]; 1 μM compound)	inhibition at 0.2 µM ([1]; 200 nM compound)	inhibition at 1 µM ([1]; 1 μM compound)
2-(3-(azetidine-1-carboxamido)phenylamino)-4-(benzylamino)pyrimidine-5-carboxamide [Example 219]	10 to 100 nM	1 to 10 nM	10 to 100 nM	10 to 100 nM	19.0%	65.3%		
NC(=O)c1cnc(Nc2ccc(Cl)c(NC(=O)N3CCOCC3)c2)nc1NCc1ccccc1 [Example 182, N-(5-(4-(benzylamino)-5-carbamoylpyrimidin-2-ylamino)-2-chlorophenyl)morpholine-4-carboxamide]	10 to 100 nM	1 to 10 nM	1 to 10 nM	10 to 100 nM			42.3%	89%
CNC(=O)Nc1cc(Nc2ncc(C(N)=O)c(NCc3ccccc3F)n2)ccc1Cl [Example 169, 2-(4-chloro-3-(3-methylureido)phenylamino)-4-(2-fluorobenzylamino)pyrimidine-5-carboxamide]	100 to 1000 nM	1 to 10 nM	10 to 100 nM	100 to 1000 nM			3.3%	16.7%
C[C@@H](Nc1nc(Nc2cccc(NC(=O)N3CCC[C@@H]3C)c2)ncc1C(N)=O)c1ccccc1 [Example 137, 2-(3-((S)-2-methylpyrrolidine-1-carboxamido)phenylamino)-4-((R)-1-phenylethylamino)pyrimidine-5-carboxamide]	100 to 1000 nM	1 to 10 nM	10 to 100 nM	10 to 100 nM			14.7%	57.3%
C[C@@H](Nc1nc(Nc2ccc(Cl)c(NC(=O)N3CCCC3)c2)ncc1C(N)=O)c1ccccc1 [Example 221, (R)-2-(4-chloro-3-(pyrrolidine-1-carboxamido)phenylamino)-4-(1-phenylethylamino)pyrimidine-5-carboxamide]	> 1000 nM	10 to 100 nM	100 to 1000 nM	100 to 1000 nM			2.3%	6.3%
NC(=O)c1cnc(Nc2cccc(NC(=O)N3CCCCC3)c2)nc1NCc1ccccc1 [Example 218, 4-(benzylamino)-2-(3-(piperidine-1-carboxamido)phenylamino)pyrimidine-5-carboxamide]	10 to 100 nM	1 to 10 nM	1 to 10 nM	10 to 100 nM			28.7%	76%
CC(=O)Nc1cc(Nc2ncc(C(N)=O)c(NCc3ccccc3)n2)ccc1OCCN1CCCC1 [Example 244, 2-(3-acetamido-4-(2-(pyrrolidin-1-yl)ethoxy)phenylamino)-4-(benzylamino)pyrimidine-5-carboxamide]	10 to 100 nM	< 1 nM	1 to 10 nM	10 to 100 nM			51.3%	94.7%
C[C@@H](Nc1nc(Nc2ccc(Cl)c(NC(N)=O)c2)ncc1C(N)=O)c1ccccc1 [Example 193, (R)-2-(4-chloro-3-ureidophenylamino)-4-(1-phenylethylamino)pyrimidine-5-carboxamide]	100 to 1000 nM	1 to 10 nM	100 to 1000 nM	100 to 1000 nM			13.7%	51.3%
CN(C)C(=O)Nc1cc(Nc2ncc(C(N)=O)c(NCc3ccccc3)n2)ccc1Cl [Example 196, 4-(benzylamino)-2-(4-chloro-3-(3,3-dimethylureido)phenylamino)pyrimidine-5-carboxamide]	100 to 1000 nM	1 to 10 nM	10 to 100 nM	100 to 1000 nM			8.3%	65%
NC(=O)c1cnc(Nc2cccc(NC(=O)N3CC=CC3)c2)nc1NCc1ccccc1 [Example 142, 4-(benzylamino)-2-(3-(2,5-dihydro-1H-pyrrole-1-carboxamido)phenylamino)pyrimidine-5-carboxamide]	10 to 100 nM	1 to 10 nM	1 to 10 nM	10 to 100 nM			41.3%	79.3%
CC(=O)Nc1cccc(Nc2ncc(C(N)=O)c(NCc3ccccc3F)n2)c1 [Example 100, 2-(3-acetamidophenylamino)-4-(2-fluorobenzylamino)pyrimidine-5-carboxamide]	10 to 100 nM	1 to 10 nM	1 to 10 nM	10 to 100 nM			43.5%	95.3%

Continued, in another order:

IC50 (JAK1)	IC50 (JAK3)	IC50 (TYK2)	IC50 (JAK2)	Molecule	% Inhibition of IL-4 Induced STAT6 Phosphorylation 200 nM ([1]; 200 nM compound)	% Inhibition of IL-4 Induced STAT6 Phosphorylation 1 μM ([1]; 1 μM compound)	inhibition at 0.2 µM ([1]; 200 nM compound)	inhibition at 1 µM ([1]; 1 μM compound)
> 1000 nM	10 to 100 nM	> 1000 nM	100 to 1000 nM	CNC(=O)Nc1cc(Nc2ncc(C(N)=O)c(NCc3cccc(Cl)c3)n2)ccc1Cl [Example 165, 2-(4-chloro-3-(3-methylureido)phenylamino)-4-(3-chlorobenzylamino)pyrimidine-5-carboxamide]			57.3%	89.7%
100 to 1000 nM	1 to 10 nM	10 to 100 nM	10 to 100 nM	COC[C@H]1CCCN1C(=O)Nc1cccc(Nc2ncc(C(N)=O)c(N[C@H](C)c3ccccc3)n2)c1 [Example 149, 2-(3-((R)-2-(methoxymethyl)pyrrolidine-1-carboxamido)phenylamino)-4-((R)-1-phenylethylamino)pyrimidine-5-carboxamide]			6.7%	44%
10 to 100 nM	1 to 10 nM	1 to 10 nM	10 to 100 nM	NC(=O)c1cnc(Nc2cccc(NC(=O)N3CCC3)c2)nc1NCc1ccccc1 [Example 222, 2-(3-(azetidine-1-carboxamido)phenylamino)-4-(benzylamino)pyrimidine-5-carboxamide]			47.7%	86.7%
100 to 1000 nM	1 to 10 nM	10 to 100 nM	100 to 1000 nM	NC(=O)Nc1cc(Nc2ncc(C(N)=O)c(NCc3ccccc3)n2)ccc1Cl [Example 194, 4-(benzylamino)-2-(4-chloro-3-ureidophenylamino)pyrimidine-5-carboxamide]			10%	22.7%
100 to 1000 nM	10 to 100 nM	100 to 1000 nM	100 to 1000 nM	CC(=O)Nc1ccc(F)c(Nc2ncc(C(N)=O)c(NCc3ccccc3)n2)c1 [Example 171, 2-(5-acetamido-2-fluorophenylamino)-4-(benzylamino)pyrimidine-5-carboxamide]			7.3%	15.3%
10 to 100 nM	1 to 10 nM	1 to 10 nM	10 to 100 nM	NC(=O)c1cnc(Nc2cccc(NC(=O)N3CC[C@H](O)C3)c2)nc1NCc1ccccc1 [Example 143, (S)-4-(benzylamino)-2-(3-(3-hydroxypyrrolidine-1-carboxamido)phenylamino)pyrimidine-5-carboxamide]			44.7%	85.7%
10 to 100 nM	1 to 10 nM	1 to 10 nM	10 to 100 nM	C[C@@H]1CCCN1C(=O)Nc1cccc(Nc2ncc(C(N)=O)c(NCc3ccccc3)n2)c1 [Example 146, (R)-4-(benzylamino)-2-(3-(2-methylpyrrolidine-1-carboxamido)phenylamino)pyrimidine-5-carboxamide]			40.7%	82%

Source: patent publication US8853230B2, “Inhibitors of JAK” (Portola Pharmaceuticals, Inc., priority 2009, dated 2014)
